These results are taken from patent US20260137693A1, “CANCER TREATMENTS USING MTA-COOPERATIVE PRMT5 INHIBITORS AND MAT2A INHIBITORS” (AMGEN INC., priority 2022, published 2026).

In experiment [1] the test system is NSCLC cancer cell line CALU1. Put plainly: Combination of Compound A and Compound B, CellTiter-Glo cell viability, CALU1 (Example 2). The experiment is classed as cell-based. Particulars: CALU1, 6 days, up to 10 μM. The method, then:
NSCLC cancer cell line CALU1 was treated with the combination of Compound A and Compound B for 6 days. Top concentration of Compound A tested was 10 μM with a total of nine 1.9-fold dilutions and DMSO-only control. Top concentration of Compound B tested was 10 μM with a total of five 2-fold dilutions and DMSO-only control. Cell viability was measured by the CellTiter-Glo Luminescence assay. Raw luminescent values were converted to POC with the following equation: POC=100*(Treatment/Vehicle). FIG. 1 represents 1 of the 2 studies conducted. N=2 technical replicates. Mean and standard deviation graphed.

Experiment [2] relates to Pancreatic cancer cell line BxPC3. Put plainly: Combination of Compound A and Compound B, CellTiter-Glo cell viability, BxPC3 (Example 2). Type of experiment: cell-based. Particulars: BxPC3, 6 days, up to 10 μM. Here is the method: Pancreatic cancer cell line BxPC3 was treated with the combination of Compound A and Compound B for 6 days. Top concentration of Compound A tested was 2 μM with a total of nine 1.9-fold dilutions and DMSO-only control. Top concentration of Compound B tested was 10 μM with a total of five 2-fold dilutions and DMSO-only control. Cell viability was measured by the CellTiter-Glo Luminescence assay. Raw luminescent values were converted to POC with the following equation: POC=100*(Treatment/Vehicle). FIG. 2 represents 1 of the 3 studies conducted. N=2 technical replicates. Mean and standard deviation graphed.
(In general: In ATP-based viability assays light output follows the ATP content of the culture.)

In the case of `Nc1nc(=O)n(-c2ccccc2Cl)c2nc(C(F)(F)F)ccc12` [Compound B, 4-amino-1-(2-chlorophenyl)-7-(trifluoromethyl)pyrido[2,3-d]pyrimidin-2(1H)-one], the “sensitivity of the model to single agent” value in experiment [1] and in experiment [2] was “insensitive” in each case.
